Measurements reported in US20180258428A1, “METHODS AND COMPOSITIONS FOR THE TREATMENT OF A METABOLIC DISORDER” (Children's Hospital Medical Center, priority 2017, published 2018).
Like-named read-outs stand apart in the source and are kept apart here.

Experiments:
primary hepatocytes [1] = assay: Glucose production assay in primary hepatocytes; format: cell-based, mouse; settings: primary hepatocytes from L-Ago2 WT and KO mice, 100 or 200 μM
Method: To investigate how Ago2 regulates glucose metabolism, Applicant first examined capacities of hepatic gluconeogenesis in Ago2-deficient primary hepatocytes. […] Applicant additionally asked if Ago2 regulates the fundamental catabolic capacities of hepatocytes. To examine the glycolytic rate, the extracellular acidification rate (ECAR) was determined in primary hepatocytes upon addition of glucose. […] Glycolysis produces pyruvate that is used as an energy source for the citric acid cycle.
Glucose production assay. Mouse primary hepatocytes were cultured in 12-well plates (0.4×10^6 cells per well) in William E supplemented with 10% FBS. Next day, cells were cultured with 1 ml of DMEM (5.5 mM glucose) supplemented with 10% FBS. Post plating for 21 hours, cells were washed twice with PBS and were subjected 3-4 hours to serum starvation with FBS-free DMEM (5.5 mM glucose). After washing twice with PBS, cells were cultured in 0.4 ml of glucose production buffer consisting of glucose-free DMEM (pH 7.4) without phenol red supplemented with 20 mM sodium lactate, 2 mM sodium pyruvate, 2 mM L-glutamine and 15 mM HEPES^62. Cells were incubated at 37° C. for 4.5 hours with or without Bt-cAMP or pCPT-cAMP. Both medium and cells were collected. The glucose concentration was measured with the Autokit Glucose (WAKO) and was normalized by the total protein content.

primary hepatocytes [2] = assay: ATP/ADP ratio assay in primary hepatocytes with metformin; format: cell-based, mouse; settings: Ago2-deficient primary hepatocytes, 1 mM metformin
Description: To further examine if Ago2 deficiency accelerates cellular energy consumption associated with protein synthesis, Applicant treated primary hepatocytes with metformin, which is an anti-diabetic drug and inhibits mitochondrial respiratory-chain complex I activity restricting ATP generation^40, and measured ATP/ADP levels. […] To directly investigate the effect of Ago2-deficiency on protein synthesis in hepatocytes, Applicant measured the levels of nascent protein synthesis. […] By restricting energy supply using phenformin and rotenone, both of which inhibit mitochondrial respiratory-chain complex I activity, the levels of nascent protein synthesis in Ago2-deficient hepatocytes were equivalent or still higher compared to those in controls (FIG. 6G).
Primary hepatocytes. Hepatocytes were isolated from liver of 12-14 weeks old L-Ago2 WT and 607 L-Ago2 KO mice by a two-step perfusion method as described previously^59 with a slight modification. […]
ATP/ADP ratio assay. The ATP/ADP ratio in the mouse liver extract or primary hepatocytes was determined using a bioluminescent ATP/ADP Ratio Assay Kit (Abcam) according to the manufacturer's instructions. […]

AMPK [3] = assay: AMPK activation in primary hepatocytes with metformin (western blot); format: cell-based, mouse; settings: Ago2-deficient primary hepatocytes versus controls, 1 mM metformin
Method: Primary hepatocytes. Hepatocytes were isolated from liver of 12-14 weeks old L-Ago2 WT and 607 L-Ago2 KO mice by a two-step perfusion method as described previously^59 with a slight modification. Briefly, the liver was first perfused with 30 ml of HBSS supplemented with 10 mM HEPES, 0.5 mM EGTA and 5 mM glucose and then digested with 35 mL of Collagenase X 610 (WAKO) at 100 U/mL dissolved in HBSS buffer supplemented with 10 mM HEPES and 5 mM CaCl2. Liver was collected after perfusion and hepatocyte were released and sedimented at 60 G for 2 mM. Hepatocyte suspension was then layered on a 40% percoll solution (GE Healthcare Life Sciences) and centrifuged at 800 G for 10 min. The alive hepatocytes were recovered from the bottom of the tube and seeded on culture plates.
Protein extraction and immunoblot analysis. To prepare protein lysates, cells were washed with cold PBS, followed by lysis in cold mammalian cell lysis buffer [MCLB: 50 mM Tris-HCl (pH 7.4), 150 mM NaCl, 10 mM NaF, 5% glycerol, 1% NP-40, 1% protease and phosphatase inhibitor cocktail]. […]

MD-miRNAs = assay: Hepatic miRNA and mRNA expression after S961 or S961 plus metformin treatment; format: in vivo, mouse; settings: 2 weeks
Description: Expression profiles that assessed the effect of insulin insufficiency on miRNAs in the liver categorized four different classes of miRNAs; (I) dominantly expressed in L-Ago2 WT, (II) induced by S961 in both L-Ago2 WT and KO, (III) suppressed by S961 in both L-Ago2 WT and KO, and (IV) expressed in L-Ago2 KO (FIG. 3d). […] These analyses implicate hepatic Ago2-dependent miRNAs play a role in the disruption of glucose metabolism under the condition of insulin insufficiency.
Quantitative real-time PCR analysis. For mRNA quantification, total RNA was extracted using Trizol reagent (Invitrogen). Total RNA was converted to first strand cDNA using SuperScript® VILO™ cDNA Synthesis Kit (Invitrogen). Quantitative real-time PCR analysis was performed using SYBR Select Master Mix (Applied Biosystems) in a real-time PCR machine (QuantStudio 6 Flex Real-Time PCR system; Thermo Fisher Scientific). To normalize expression data, β-actin mRNA was used as a housekeeping gene. For miRNA quantification, total RNA was extracted using miRNeasy Micro Kit (Qiagen) according to manufacturer's instructions. TaqMan miRNA assays (Life Technologies) were used and real-time PCR were carried out for mature miRNA quantification. Primary miRNAs were quantified using TaqMan […] assays. Sno202 and β-actin were used as internal controls.
High-throughput sequencing of miRNA. […]

[4] = for glucose tolerance (GTT): one week; for hepatic glycogen contents (S961-induced glycogenolysis) / serum insulin levels (S961-induced hyperinsulinemia): 2 weeks post S961 with metformin
Method: (§1) Mice. Animal care and experimental procedures were performed according to procedures approved by the animal care committees of our medical center. […] The ALZET osmotic pump were used to deliver 10 nM S961 or vehicle (PBS) in a two-week period. GTTs were performed by intraperitoneal glucose injection (1.5 g/kg) following an overnight food withdrawal for 14 hours. […] Mouse plasma insulin levels were measured using Mouse Ultrasensitive Insulin ELISA kit (ALPCO).

[5] = Fasting blood glucose in HFD-fed mice before and after oral metformin; format: in vivo, mouse; settings: oral metformin 80 mg/kg/day for 7 days
Method: as §1

AMPK [6] = assay: AMPK activation in MEFs with cycloheximide (western blot); format: cell-based, mouse; settings: 25 μg/ml cycloheximide for 8 hours
Description: Since Ago2 slicer activity uniquely regulates RNA silencing, Applicant then asked if the slicer activity is involved in the regulation of energy consumption and AMPK activation. […] More importantly, Applicant also observed that AMPK activity, assessed by phosphorylation levels of AMPKα and ACC, was higher in Ago2-deficient MEFs under serum starvation condition (FIG. 16A). […] While activated AMPKα is known to suppress mRNA translation^41, levels of nascent protein synthesis in Ago2-deficient MEFs are increased compared to the cells reconstituted with WT Ago2 (FIG. 16B). To investigate if enhanced protein synthesis reasons AMPK activation in Ago2-deficiency, Applicant treated MEFs with cycloheximide (CHX), a protein synthesis inhibitor, and monitored AMPK activation.
Mouse embryonic fibroblasts. Ago2-deficient fibroblasts reconstituted with Ago2 WT or DA mutant that were kindly provided by Dr. Eric Lai^22. Applicant generated Ago2^fl/fl MEFs through the 3T3 protocol and performed an adenovirus-mediated gene transfer for Cre or LacZ expression to obtain Ago2-deficient MEFs^60. MEF cells were cultured in Dulbecco Modified Eagle Medium (DMEM) (Thermo Fisher Scientific: #11965) supplemented with 10% FBS. For western blot analyses of AMPK, MEF cells were plated at a density of 1×10^5 cells per well of 6-well plate for overnight. […]

SMILES: Nc1ncnc2c1nc(Sc1ccc(Cl)cc1)n2[C@@H]1O[C@@H]2COP(=O)([O-])O[C@H]2[C@H]1O.[Na+] [pCPT-cAMP, 8-(4-Chlorophenylthio)adenosine 3′,5′-cyclic monophosphate]
- glucose production (primary hepatocytes [1]): similarly induced between genotypes

SMILES: CCCC(=O)Nc1ncnc2c1ncn2[C@@H]1O[C@@H]2COP(=O)(O)O[C@H]2[C@H]1OC(=O)CCC [Bt-cAMP, dibutyryl cyclic AMP]
- glucose production (primary hepatocytes [1]): similarly induced between genotypes

SMILES: CN(C)C(=N)N=C(N)N [metformin]
- relative ATP/ADP levels (primary hepatocytes [2]): rapidly decreased
- levels of metformin-induced AMPK activation (AMPK [3]): significantly higher than that in controls
- expression of MD-miRNAs in liver (MD-miRNAs; Ago2-deficient liver): did not affect their expression levels
- expression of S961-induced MD-miRNAs in liver (MD-miRNAs; L-Ago2 WT mice): drastic suppression
- glucose tolerance (GTT) ([4]; L-Ago2 KO mice treated with S961, metformin 150 mg/kg/day via osmotic pumps): no change in glucose tolerance
- hepatic glycogen contents (S961-induced glycogenolysis) ([4]; L-Ago2 KO mice): blunted
- serum insulin levels (S961-induced hyperinsulinemia) ([4]; L-Ago2 KO mice): blunted
- glucose tolerance (GTT) ([4]; L-Ago2 WT mice treated with S961, metformin 150 mg/kg/day via osmotic pumps): improved glucose tolerance
- hepatic glycogen contents (S961-induced glycogenolysis) ([4]; L-Ago2 WT mice): alleviated
- serum insulin levels (S961-induced hyperinsulinemia) ([4]; L-Ago2 WT mice): alleviated S961-induced hyperinsulinemia
- fasting blood glucose levels ([5]; L-Ago2 KO mice fed HFD): no change upon metformin treatment
- fasting blood glucose levels ([5]; L-Ago2 WT mice fed HFD): reduced fasting blood glucose levels

SMILES: C[C@@H]1C[C@@H]([C@H](O)CC2CC(=O)NC(=O)C2)C(=O)[C@@H](C)C1 [cycloheximide]
- AMPK activation (AMPK [6]; Ago2-deficient MEFs): more robust
- AMPK activation (AMPK [6]; WT MEFs): reduction of AMPK activation
